A word on the IC50: it is the concentration that gives 50% inhibition.

Here are results for six molecules from US20240376094A2, “SELECTIVE BCL-XL PROTAC COMPOUNDS AND METHODS OF USE” (Les Laboratoires Servier, priority 2021, published 2024).

Assay type in all cases: cell-based
One test relates to COR-L105. Briefly: CellTiter-Glo proliferation assay, COR-L105. To be noted: Homo sapiens, COR-L105, 120 h, COR-L105, 5 days; for Emax: read-out: COR-L105 Span (max). The essentials: (§1)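 Both lines grown in RPMI-1640 + 10% FBS. COR-L105 plated flat at 1,000 cells/well overnight; NCI-H1650 grown as spheroids, 3,000 cells/well, 72 h. Compounds at 0.508 nM-10 μM final for 5 days, 37° C. ATP read by CellTiter-Glo (3D version for spheroids); IC50 from variable-slope fit normalized to untreated cells.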
For orientation: Cellular ATP, detected with luciferase, serves as a proxy for viable cell number.

A further test relates to NCI-H1650. Briefly: CellTiter-Glo 3D proliferation assay, NCI-H1650 spheroids. To be noted: Homo sapiens, NCI-H1650, 120 h, 5 days; for Emax: read-out: NCI-H1650 Span (Amax). A digest of the protocol: as §1
In another test the target is T1, endogenous BCL-xL (Homo sapiens, UniProt Q07817).
T1 construct: endogenous in cells; host or cells: COR-L105 (ECACC No. 92031918); NCI-H1650 (ATCC No. CRL-5883)
Description: Degradation of endogenous BCL-xL in COR-L105 (ProteinSimple Jess). Conditions: COR-L105, 24 h, COR-L105, dose 300 nM, read-out: % BCL-xL vs. Untreated, COR-L105. On the procedure: The BCL-xL degrader low molecular weight compounds were tested against two endogenous cancer cell lines: • COR-L105: ECACC No. 92031918 cultured in RPMI-1640+10% FBS • NCI-H1650: (ATCC No. CRL-5883 cultured in RPMI-1640+10% FBS
The ability of the BCL-xL degrader low molecular weight compounds to degrade endogenous BCL-xL was assessed using the ProteinSimple 2-40 kDa Jess Separation Module.
Cell lines were cultured in media that is optimal for their growth at 5% CO2, 37° C. in a tissue culture incubator. Prior to seeding for the degradation assay, the cells were split at least 2 days before the assay to ensure optimal growth density. On the day of seeding, adherent cells were lifted off tissue culture flasks using 0.25% trypsin. Cell viability and cell density were determined using a cell counter (Vi-Cell XR Cell Viability Analyzer, Beckman Coulter). Cells with higher than 85% viability were seeded for the assay.
The COR-L105 and the NCI-H1650 cell line were seeded in 6-well clear TC-treated multiple well plates (Costar® cat. #3516). Cells were seeded at a density of 2,000,000 cells per well in 2.5 mL of standard growth media. Plates were incubated at 5% CO2, 37° C. overnight in a tissue culture incubator. On the day of dosing, BCL-xL degrader low molecular weight compounds and a BCL-xL inhibitor control were prepared at 6× in standard growth media. The prepared drug treatments were then added to the cells resulting in a final concentration of 100-300 nM and a final volume of 3.0 mL per well. A control well of untreated cells was also included in the study. Each drug concentration was tested in singlet. Plates were incubated at 5% CO2, 37° C. for 24 hours in a tissue culture incubator.
After 24 hours, the adherent cells were lifted off tissue culture plates using 0.25% trypsin. Standard growth media was added to quench the trypsin and centrifuged for 5 minutes at 1500 rpm. Cell pellets were washed once with cold PBS and centrifuged for 5 minutes at 1500 rpm. Cells were then washed with 1 mL cold PBS and transferred to a 1.5 mL eppendorf tube. Cells were centrifuged for 10 minutes at ≥10,000 g at 4° C. in a benchtop mini-centrifuge. The entire supernatant was discarded and cells were resuspended thoroughly in 50 μL of RIPA lysis buffer, generated by the manufacturer's protocol (ProteinSimple, Cat. #CBS401: Lysis Kit—RIPA Buffer for Charge Assays). Lysates were incubated on ice for 30 minutes. Following incubation, lysates were spun in a benchtop mini-centrifuge for 15 minutes at full speed at 4° C. Supernatant was carefully transferred to a new eppendorf tube for downstream analysis.
Protein was quantified using a Pierce™ BCA Protein Assay Kit (ThermoFisher, cat #23225) following the manufacturer's instructions. A standard curve was prepared by adding 25 μL of each concentration of reference samples from a Pierce™ Bovine Serum Albumin Standard Pre-Diluted Set (ThermoFisher, cat #23208). Each reference sample was run in duplicate. Testing samples were prepared by diluting cell lysates 1:5 in UltraPure™ DNase/RNase-Free Distilled Water and tested in duplicates of 25 μL each. The BCA working reagent was prepared by addition of 50 parts of BCA Reagent A with 1 part of BCA Reagent B. For each testing well, 200 μL of BCA working reagent was added. The plate was incubated at 37° C. for 30 minutes. A SpectraMax M Series Multi-Mode Microplate Reader was used to measure the absorbance at 562 nm. A standard curve generated by the Pierce™ Bovine Serum Albumin Standard Pre-Diluted Set was used to normalize and calculate the BCA concentration of cell lysates. Only values that fell within the range of the standard curve were accepted for quantification.
The ProteinSimple 2-40 kDa Jess Separation Module was used to detect BCL-xL degradation in treated versus untreated lysates following the manufacturer's instructions (25-Capillary Cartridge, 8 pack, 2-40 kDa, cat #SM W012). […]

T1 sequence (Q07817 whole entry): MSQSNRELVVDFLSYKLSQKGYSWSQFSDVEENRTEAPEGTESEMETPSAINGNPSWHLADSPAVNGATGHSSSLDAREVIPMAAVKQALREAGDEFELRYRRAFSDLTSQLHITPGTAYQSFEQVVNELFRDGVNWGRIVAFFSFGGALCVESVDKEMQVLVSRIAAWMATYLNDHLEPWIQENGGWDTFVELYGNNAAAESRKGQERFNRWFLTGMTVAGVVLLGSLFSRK

With `Cc1ncsc1-c1ccc([C@H](C)NC(=O)[C@@H]2C[C@@H](O)CN2C(=O)[C@@H](NC(=O)CN(C)CC(=O)N2CCN(CC#Cc3ccc(OCCCc4sc(N5CCCc6c5nnc(Nc5nc7ccccc7s5)c6C)nc4C(=O)O)c(F)c3)CC2)C(C)(C)C)cc1` [Example 36, 2-(3-(benzo[d]thiazol-2-ylamino)-4-methyl-6,7-dihydropyrido [2,3-c]pyridazin-8(5H)-yl)-5-(3-(2-fluoro-4-(3-(4-(N-(2-(((S)-1-((2S,4R)-4-hydroxy-2-(((S)-1-(4-(4-methylthiazol-5-yl)phenyl)ethyl)carbamoyl)pyrrolidin-1-yl)-3,3-dimethyl-1-oxobutan-2-yl)amino)-2-oxoethyl)-N-methylglycyl)piperazin-1-yl)prop-1-yn-1-yl)phenoxy)propyl) thiazole-4-carboxylic acid], in the test on COR-L105, the midpoint of inhibition, the IC50, lay at 296 nM and the Emax was found to be 94.1%. For the same molecule, in the test with NCI-H1650, the IC50 came out at 37.3 nM and the Emax came out at 68.3%. Further, the remaining activity at 0.3 µM on endogenous BCL-xL is over 90%.
`Cc1ncsc1-c1ccc([C@H](C)NC(=O)[C@@H]2C[C@@H](O)CN2C(=O)[C@@H](NC(=O)C2CC3(C2)CC(C(=O)N2CCN(CC#Cc4ccc(OCCCc5sc(N6CCCc7c6nnc(Nc6nc8ccccc8s6)c7C)nc5C(=O)O)c(F)c4)CC2)C3)C(C)(C)C)cc1` (stereo partly drawn) [Example 41, 2-(3-(benzo[d]thiazol-2-ylamino)-4-methyl-6,7-dihydropyrido [2,3-c]pyridazin-8(5H)-yl)-5-(3-(2-fluoro-4-(3-(4-(6-(((S)-1-((2S,4R)-4-hydroxy-2-(((S)-1-(4-(4-methylthiazol-5-yl)phenyl)ethyl)carbamoyl)pyrrolidin-1-yl)-3,3-dimethyl-1-oxobutan-2-yl)carbamoyl)spiro[3.3]heptane-2-carbonyl)piperazin-1-yl)prop-1-yn-1-yl)phenoxy)propyl) thiazole-4-carboxylic acid]: in the test with COR-L105, the IC50 was 220 nM and the Emax was 88.2%. Besides, in the test with NCI-H1650, 8.83 nM corresponded to half-maximal inhibition (IC50) and the Emax was 106%. Moreover, the remaining activity at 0.3 µM at endogenous BCL-xL was found to be 30.3%.
Taken in the same sequence, the figures for `Cc1ncsc1-c1ccc([C@H](C)NC(=O)[C@@H]2C[C@@H](O)CN2C(=O)[C@@H](NC(=O)CCCCCC(=O)N2CCN(CC#Cc3ccc(OCCCc4sc(N5CCCc6c5nnc(Nc5nc7ccccc7s5)c6C)nc4C(=O)O)c(F)c3)CC2)C(C)(C)C)cc1` [Example 34, 2-(3-(benzo[d]thiazol-2-ylamino)-4-methyl-6,7-dihydropyrido [2,3-c]pyridazin-8(5H)-yl)-5-(3-(2-fluoro-4-(3-(4-(7-(((S)-1-((2S,4R)-4-hydroxy-2-(((S)-1-(4-(4-methylthiazol-5-yl)phenyl)ethyl)carbamoyl)pyrrolidin-1-yl)-3,3-dimethyl-1-oxobutan-2-yl)amino)-7-oxoheptanoyl)piperazin-1-yl)prop-1-yn-1-yl)phenoxy)propyl)thiazole-4-carboxylic acid] were 74.2 nM, 82.7%, 7.67 nM, 55.4% and 74.5%.
Take `Cc1ncsc1-c1ccc([C@H](C)NC(=O)[C@@H]2C[C@@H](O)CN2C(=O)[C@@H](NC(=O)CC2(CC(=O)N3CCN(CC#Cc4ccc(OCCCc5sc(N6CCCc7c6nnc(Nc6nc8ccccc8s6)c7C)nc5C(=O)O)c(F)c4)CC3)CCCC2)C(C)(C)C)cc1` [Example 39, 2-(3-(benzo[d]thiazol-2-ylamino)-4-methyl-6,7-dihydropyrido [2,3-c]pyridazin-8(5H)-yl)-5-(3-(2-fluoro-4-(3-(4-(2-(1-(2-(((S)-1-((2S,4R)-4-hydroxy-2-(((S)-1-(4-(4-methylthiazol-5-yl)phenyl)ethyl)carbamoyl)pyrrolidin-1-yl)-3,3-dimethyl-1-oxobutan-2-yl)amino)-2-oxoethyl)cyclopentyl)acetyl)piperazin-1-yl)prop-1-yn-1-yl)phenoxy)propyl) thiazole-4-carboxylic acid]: the IC50 is 524 nM in the test with COR-L105 and 38.4 nM with NCI-H1650. Further, the Emax in the test on COR-L105 turned out to be 95.3%; in the test with NCI-H1650 it was 96.4%. Further, the remaining activity at 0.3 µM at endogenous BCL-xL was 63.6%.
The corresponding values for `Cc1ncsc1-c1ccc([C@H](C)NC(=O)[C@@H]2C[C@@H](O)CN2C(=O)[C@@H](NC(=O)CCCCCCCCN2CCN(CC#Cc3ccc(OCCCc4sc(N5CCCc6c5nnc(Nc5nc7ccccc7s5)c6C)nc4C(=O)O)c(F)c3)CC2)C(C)(C)C)cc1` [Example 52, 2-(3-(benzo[d]thiazol-2-ylamino)-4-methyl-6,7-dihydropyrido [2,3-c]pyridazin-8(5H)-yl)-5-(3-(2-fluoro-4-(3-(4-(9-(((S)-1-((2S,4R)-4-hydroxy-2-(((S)-1-(4-(4-methylthiazol-5-yl)phenyl)ethyl)carbamoyl)pyrrolidin-1-yl)-3,3-dimethyl-1-oxobutan-2-yl)amino)-9-oxononyl)piperazin-1-yl)prop-1-yn-1-yl)phenoxy)propyl)thiazole-4-carboxylic acid] are 9.93 nM, 2.82 nM, 80.6%, 60.8% and 28.6%.
`Cc1ncsc1-c1ccc([C@H](C)NC(=O)[C@@H]2C[C@@H](O)CN2C(=O)[C@@H](NC(=O)CCCCCCCC(=O)N2CCN(CC#Cc3ccc(OCCCc4sc(N5CCCc6c5nnc(Nc5nc7ccccc7s5)c6C)nc4C(=O)O)c(F)c3)CC2)C(C)(C)C)cc1` [Example 38, 2-(3-(benzo[d]thiazol-2-ylamino)-4-methyl-6,7-dihydropyrido [2,3-c]pyridazin-8(5H)-yl)-5-(3-(2-fluoro-4-(3-(4-(9-(((S)-1-((2S,4R)-4-hydroxy-2-(((S)-1-(4-(4-methylthiazol-5-yl)phenyl)ethyl)carbamoyl)pyrrolidin-1-yl)-3,3-dimethyl-1-oxobutan-2-yl)amino)-9-oxononanoyl)piperazin-1-yl)prop-1-yn-1-yl)phenoxy)propyl)thiazole-4-carboxylic acid]: in the test on COR-L105, the IC50 is 83.1 nM and the Emax turned out to be 87.4%. Further, in the test on NCI-H1650, the IC50 is 8.15 nM and the Emax turned out to be 87.9%. Besides, the remaining activity at 0.3 µM at endogenous BCL-xL worked out at 22.1%.
